# Target: T1, 3-oxo-5-alpha-steroid 4-dehydrogenase 2 (Homo sapiens, UniProt P31213)
# T1 sequence (P31213 whole entry): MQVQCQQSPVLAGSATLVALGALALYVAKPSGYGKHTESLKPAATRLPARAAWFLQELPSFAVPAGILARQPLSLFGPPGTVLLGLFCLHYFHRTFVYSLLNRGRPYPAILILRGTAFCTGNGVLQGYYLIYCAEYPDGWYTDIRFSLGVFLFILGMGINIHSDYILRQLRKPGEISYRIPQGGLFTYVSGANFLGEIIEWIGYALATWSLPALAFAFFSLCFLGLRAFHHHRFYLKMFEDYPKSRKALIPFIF
# Assay: 5α-R2 Activity Assay
# Protocol: The activity of the isozyme 5α-R type 2 was assayed as previously described [Hirosumi et al., J. Steroid Biochem. Mol. Biol., 52:357-363; Bratoeff et al., J. Steroid Biochem. Mol. Biol., 107:48-56].
row,SMILES,IC50 [nM]
1,C[C@]12CC[C@H](OC(=O)c3ccc(F)cc3)CC1=CCC1C2CC[C@]2(C)C(=O)CCC12 (stereo partly drawn) [17-Oxaandrost-5-ene-3β-yl-p-fluorobenzoate (2)],3.58
2,C[C@]12CC[C@H](OC(=O)c3ccccc3)CC1=CCC1C2CC[C@]2(C)C(=O)CCC12 (stereo partly drawn) [17-Oxaandrost-5-ene-3β-yl-benzoate (1)],> 100000

# From BindingDB's records for doi:10.3109/14756366.2012.729827 (National University of Mexico City, 2013)
